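Dose response: 5 concentrations. Exposure: 48 h. Format: 96-well plates. Endpoint: linear interpolation; highest concentration if not reached. GI50 is the concentration that inhibits growth by half. The concentration for full growth arrest is given as TGI.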
Columns and labels:
Assay in all cases: DTP human tumour cell line panel, 48 h
K-562 leukemia = tested on: K-562 leukemia
NCI-H460 lung = tested on: NCI-H460 lung
SF-539 CNS = tested on: SF-539 CNS
OVCAR-5 ovarian = tested on: OVCAR-5 ovarian
MOLT-4 leukemia = tested on: MOLT-4 leukemia
PC-3 prostate = tested on: PC-3 prostate
MCF7 breast = tested on: MCF7 breast
HS 578T breast = tested on: HS 578T breast
UO-31 renal = tested on: UO-31 renal
UACC-257 melanoma = tested on: UACC-257 melanoma

Compound	GI50 (K-562 leukemia) [µM]	TGI (K-562 leukemia) [µM]	GI50 (NCI-H460 lung) [µM]	TGI (NCI-H460 lung) [µM]	GI50 (SF-539 CNS) [µM]	TGI (SF-539 CNS) [µM]	GI50 (OVCAR-5 ovarian) [µM]	TGI (OVCAR-5 ovarian) [µM]	GI50 (MOLT-4 leukemia) [µM]	TGI (MOLT-4 leukemia) [µM]	GI50 (PC-3 prostate) [µM]	TGI (PC-3 prostate) [µM]	GI50 (MCF7 breast) [µM]	TGI (MCF7 breast) [µM]	GI50 (HS 578T breast) [µM]	TGI (HS 578T breast) [µM]	GI50 (UO-31 renal) [µM]	TGI (UO-31 renal) [µM]	GI50 (UACC-257 melanoma) [µM]	TGI (UACC-257 melanoma) [µM]
COc1cccc(/C=C2\COc3ccc(-c4ccccc4)cc3C2=O)c1	3.32	> 100	1.74	3.78	2.05	4.12	3.67	13.2	3.09	> 100	2.87	16.2	2.05	9.17	2.76	6.61	2.98	9.12		
CC(=O)[O][Hg][c]1c(C)c(C)cc(C)c1C	0.743	11	0.739	3.09	1.51	3.11	1.94	3.84	0.242	4.54	1.73	4.5	0.873	2.86	0.708	4.02	1.68	3.25	1.36	2.73
CC(=O)O[C@H]1CC[C@@]2(C)C(=CC[C@@H]3C2CC[C@]2(C)Nc4nc5ccccc5cc4CC32)C1 (some centres undefined)		11.6		17.5		12		26.9		11.7								16.9		13
C=CCc1cc(OC)c2c(c1)C(OC)CC(c1ccc(OC)c(OC)c1)O2 (centres undefined)		> 100		> 100		> 100		> 100		> 100								> 100		> 100
CN(CCCNC(=O)CCOCCOCCOCCNC(=O)Cc1ccc2ccc3cccc4ccc1c2c34)CCCNc1cc(-c2ccc3ccccc3c2)nc2ccccc12	0.0668	0.146	0.52	1.02	0.526	0.99	0.635	1.18			0.435	0.988	0.283	0.771	1.59	11.5	5.1	13.6	0.478	0.908
O=C1Cc2cc(C(=O)NC3C[C@H]4CC[C@@H](C3)N4S(=O)(=O)CC3CCN(CCCC(F)(F)F)CC3)c(Cl)cc2N1 (some centres undefined)			> 100	> 100	> 100	> 100	> 100	> 100	> 100	> 100	> 100	> 100	> 100	> 100	> 100	> 100	> 100	> 100	> 100	> 100
Nc1ncnc2c1ncn2C1OC(CO)C(O)C1N (centres undefined)		> 100		> 100		> 100		> 100		> 100		> 100				> 100		> 100		> 100
O=C(CC(Cl)=C(Cl)Cl)c1cccc(Cl)c1Cl			> 100	> 100	84.1	> 100	> 100	> 100	24	> 100	78.3	> 100	66.8	> 100	> 100	> 100	59.4	> 100	> 100	> 100
Cn1nc(-c2ccccc2)c2c(/C=C/c3ccccc3)onc2c1=O		> 100		> 100		> 100		> 100		> 100								> 100		> 100
Cc1ccc(S(=O)(=O)NC(CN)C(=O)O)cc1 (centres undefined)				> 100		> 100		> 100		> 100		> 100		> 100		> 100		> 100		> 100
O=C(COc1cccc(/C=C2\CSc3ccccc3C2=O)c1)Nc1nccs1	2.79	> 100	10	25.5	2.4	13.3	3.08	15.5			1.82	4.24	0.779	3.54	2.79	12.5	1.29	2.64	3.02	9.77
CC1(c2ccc(Cl)cc2)C2C(=O)NC(=O)C1C(=O)NC2=O (centres undefined)		> 100		> 100		> 100		> 100		> 100								> 100		> 100
CN(c1ccccc1)c1c(Cl)c(=O)oc2c1ccc1occc12		> 100		> 100		> 100		> 100		> 100								> 100		> 100
CCOC(=O)C1(C)CCCCC(=O)N1 (centres undefined)		> 100		> 100														> 100		
CC(=O)OC1COC(n2c(=S)n(-c3ccccc3)c(=O)c3ccccc32)C(OC(C)=O)C1OC(C)=O (centres undefined)		> 100		> 100		> 100		> 100		> 100								> 100		> 100
c1ccc2c(c1)cc1n2CC2CN=NC12 (centres undefined)		> 100		> 100		> 100		> 100		> 100								> 100		> 100
C=C1C(=O)OC2/C=C(/C)C(OC(C)=O)C/C=C(\C)C(OC(=O)C3(C)OC3C)C(O)C12 (centres undefined)		> 100		> 100		> 100		> 100		> 100		> 100		> 100		> 100				> 100
COC(=O)c1ccc(NC(=O)Oc2ccc(N(CCCl)CCCl)cc2)cc1	4.85	> 100	0.386	14.9	2.92	18.9	30.8	> 100			11.4	> 100	1.6	> 100	18.8	97.9	4.86	29.7	7.73	99.7
CC(=O)NNc1nc(C)c(C(=O)NNC(=O)C(=O)Nc2ccc(Cl)cc2Cl)s1		50.2				99.5		> 100		57								98.2		83.4
CN(C)C(=S)SCC(=O)Nc1ccccc1		> 100		> 100				> 100		> 100				> 100		> 100		> 100		> 100

Compound	GI50 (K-562 leukemia) [µM]	TGI (K-562 leukemia) [µM]	GI50 (NCI-H460 lung) [µM]	TGI (NCI-H460 lung) [µM]	GI50 (SF-539 CNS) [µM]	TGI (SF-539 CNS) [µM]	GI50 (OVCAR-5 ovarian) [µM]	TGI (OVCAR-5 ovarian) [µM]	GI50 (MOLT-4 leukemia) [µM]	TGI (MOLT-4 leukemia) [µM]	GI50 (PC-3 prostate) [µM]	TGI (PC-3 prostate) [µM]	GI50 (MCF7 breast) [µM]	TGI (MCF7 breast) [µM]	GI50 (HS 578T breast) [µM]	TGI (HS 578T breast) [µM]	GI50 (UO-31 renal) [µM]	TGI (UO-31 renal) [µM]	GI50 (UACC-257 melanoma) [µM]	TGI (UACC-257 melanoma) [µM]
COC(=O)C=Cc1ccc2nncnc2c1 (mixture of isomers)		> 100				> 100		> 100		> 100		> 100		> 100		> 100		> 100		36.3
CC(SC(=O)Nc1ccc(N=Nc2ccccc2)cc1)C(=O)O (centres undefined)		> 100		> 100		> 100		> 100		> 100								> 100		> 100
CC(=O)C1=C(O)C2C3c4c[nH]c5cccc(c45)CC3C(C)(C)N2C1=O (centres undefined)		> 100		31.8		44.4		> 100		> 100								81.6		> 100
CCOc1ccc(NC(=O)CC2C(=O)Nc3ccccc3S2(=O)=O)cc1 (centres undefined)		> 100		> 100		> 100		> 100		> 100								> 100		> 100
O=S(=O)(c1cnccc1N1CCN(CCO)CC1)N1CCCC1		> 100		> 100		> 100		> 100				> 100		> 100		> 100		> 100		> 100
NC(=O)NC1C(C(N)=O)N(Cc2ccccc2)C(=O)N1Cc1ccccc1 (centres undefined)		> 100		> 100		> 100		> 100		> 100								> 100		> 100
Cc1ccc(S(=O)(=O)N/N=C(/c2nc3ccc([N+](=O)[O-])cc3[nH]c2=O)C(O)c2ccc(C(O)/C(=N\NS(=O)(=O)c3ccc(C)cc3)c3nc4ccc([N+](=O)[O-])cc4[nH]c3=O)cc2)cc1 (centres undefined)		> 100		> 100		> 100		> 100		> 100								> 100		> 100
Brc1ccc2ns[s+]c2c1		> 100		> 100		65.3		> 100		> 100								> 30.7		> 100
CC(=O)NC(CC(C)C)C(=O)NC(Cc1ccccc1)C(=S)N1CCCC1 (centres undefined)		> 100		> 100				> 100		> 100								> 100		> 100
CC(C)(C)C(C#N)(C#N)c1ccc(C(C#N)(C#N)C(C)(C)C)nn1		> 100		> 100		> 100		> 100		> 100								> 100		> 100
CC1=C(C(=O)Nc2cc(F)c(F)cc2F)C(c2ccc([N+](=O)[O-])cc2)C(C(=O)Nc2cc(F)c(F)cc2F)=C(C)N1		> 100		> 100		> 100		> 100		> 100								70.6		> 100
O=C(NNc1ccccc1)/C(=C/c1ccc2c(c1)OCO2)NC(=O)c1ccccc1		> 100		> 100		> 100		> 100		> 100								> 100		> 100
CN(C)CCNC(=O)c1cccc2c1Oc1c(cccc1[N+](=O)[O-])O2		7.55		2.66		4.85		8.14		2.27		12.5		> 100		6.71				6.34
COc1cc2c(=O)[nH]c3cc([N+](=O)[O-])ccc3c2cc1[N+](=O)[O-]	5.97	> 100			4.65	> 100	63.4	> 100	3.9	> 100	6.07	> 100	0.979	> 100	23.3	> 100	2.03	> 100	3.28	> 100
O=P(O)(O)C1(P(=O)(O)O)CC1		> 100		> 100		> 100		> 100		> 100								> 100		> 100
COc1ccc(/C=C/C(=O)c2sc(-n3nc(-c4ccccc4)cc3-c3ccccc3)nc2C)cc1		> 100	> 100	> 100	> 100	> 100				> 100								> 100		> 100
CCN1CCN(C(=O)[C@]23CCC(C)(C)C[C@@H]2C2=CC[C@@H]4[C@@]5(C)C/C(=C/c6ccncc6)C(=O)C(C)(C)[C@@H]5CC[C@@]4(C)[C@]2(C)CC3)CC1	1.6	> 100	1.28	2.7	1.64	3.04	1.66	3.15			0.833	2.2	1.08	2.53	1.58	4.16	1.24	2.5	1.51	3.28
COc1cc2nc3cc([N+](=O)[O-])ccc3c(NCCNCC(C)(C)O)c2cc1OC			0.377	1.47	0.566	2.12	2.22	8.87	0.354	10.7	0.581	2.47	0.372	2.04	1.75	6.15	1.85	5.93	1.94	4.19
Cc1cc(N2CCN(C)CC2)n2nc(-c3ccc(Cl)cc3)nc2n1		> 100		> 100		> 100		> 100		> 100		> 100		> 100		> 100				> 100
CCCCCCC[CH2][Sn]1([CH2]CCCCCCC)[O]C(=O)c2cccnc2[O]1	> 100	> 100	> 100	> 100	> 100	> 100	> 100	> 100	> 100	> 100							> 100	> 100	> 100	> 100
